Assay results taken from BindingDB's records for doi:10.1021/jm0001626 (Signal Pharmaceuticals, 2000).

molecular target: Transcription factor Jun (Homo sapiens, UniProt P05412); experiment: Concentration required to inhibit activator protein-1(AP-1) mediated transcriptional activation in human Jurkat T-cells
Sequence (P05412 whole entry): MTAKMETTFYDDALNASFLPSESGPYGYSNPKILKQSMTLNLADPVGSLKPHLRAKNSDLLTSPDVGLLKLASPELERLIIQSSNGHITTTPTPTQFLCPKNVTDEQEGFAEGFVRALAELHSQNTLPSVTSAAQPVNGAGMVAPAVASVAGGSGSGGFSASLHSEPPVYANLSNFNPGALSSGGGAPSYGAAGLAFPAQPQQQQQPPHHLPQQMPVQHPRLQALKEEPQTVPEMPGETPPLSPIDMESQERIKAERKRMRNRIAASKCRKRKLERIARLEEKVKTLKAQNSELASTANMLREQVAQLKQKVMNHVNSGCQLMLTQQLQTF

| IC50 [µM] | Structure (SMILES) |
| --- | --- |
| > 10 | N#Cc1ncc(C(=O)Nc2cc(C(F)(F)F)cc(C(F)(F)F)c2)c(C(F)(F)F)n1 [2-Cyano-4-trifluoromethyl-pyrimidine-5-carboxylic acid (3,5-bis-trifluoromethyl-phenyl)-amide] |
| > 10 | O=C(Nc1cc(C(F)(F)F)cc(C(F)(F)F)c1)c1cc(C(F)(F)F)nc(Cl)n1 [2-Chloro-6-trifluoromethyl-pyrimidine-4-carboxylic acid (3,5-bis-trifluoromethyl-phenyl)-amide] |
| > 10 | O=C(Nc1cc(C(F)(F)F)cc(C(F)(F)F)c1)c1cnc(C(F)(F)F)nc1 [2-Trifluoromethyl-pyrimidine-5-carboxylic acid (3,5-bis-trifluoromethyl-phenyl)-amide] |
| > 10 | Cc1nc(C(F)(F)F)ncc1C(=O)Nc1cc(C(F)(F)F)cc(C(F)(F)F)c1 [4-Methyl-2-trifluoromethyl-pyrimidine-5-carboxylic acid (3,5-bis-trifluoromethyl-phenyl)-amide] |
| > 10 | Cc1ncc(C(=O)Nc2cc(C(F)(F)F)cc(C(F)(F)F)c2)c(C(F)(F)F)n1 [2-Methyl-4-trifluoromethyl-pyrimidine-5-carboxylic acid (3,5-bis-trifluoromethyl-phenyl)-amide] |
| > 10 | O=C(Nc1cc(C(F)(F)F)cc(C(F)(F)F)c1)c1cnc(C(F)(F)F)nc1Cl [4-Chloro-2-trifluoromethyl-pyrimidine-5-carboxylic acid (3,5-bis-trifluoromethyl-phenyl)-amide] |
| > 10 | O=C(Nc1cc(C(F)(F)F)cc(C(F)(F)F)c1)c1cnc(C(F)(F)F)nc1C(F)(F)F [2,4-Bis-trifluoromethyl-pyrimidine-5-carboxylic acid (3,5-bis-trifluoromethyl-phenyl)-amide] |
| 0.6 | O=C(Nc1cc(C(F)(F)F)cc(C(F)(F)F)c1)c1cnc(Cl)nc1C(F)(F)C(F)(F)F [2-Chloro-4-pentafluoroethyl-pyrimidine-5-carboxylic acid (3,5-bis-trifluoromethyl-phenyl)-amide] |

Second part, the compound before the results:

| Structure (SMILES) | IC50 [µM] |
| --- | --- |
| CCc1nc(Cl)ncc1C(=O)Nc1cc(C(F)(F)F)cc(C(F)(F)F)c1 [2-Chloro-4-ethyl-pyrimidine-5-carboxylic acid (3,5-bis-trifluoromethyl-phenyl)-amide] | 0.3 |
| O=C(Nc1cc(C(F)(F)F)cc(C(F)(F)F)c1)c1cnc(Cl)nc1 [2-Chloro-pyrimidine-5-carboxylic acid (3,5-bis-trifluoromethyl-phenyl)-amide] | 0.3 |
| Cc1cc(C(=O)Nc2cc(C(F)(F)F)cc(C(F)(F)F)c2)nc(Cl)n1 [2-Chloro-6-methyl-pyrimidine-4-carboxylic acid (3,5-bis-trifluoromethyl-phenyl)-amide] | > 10 |
| O=C(Nc1cc(C(F)(F)F)cc(C(F)(F)F)c1)c1ccc(Cl)cc1C(F)(F)F [N-(3,5-Bis-trifluoromethyl-phenyl)-4-chloro-2-trifluoromethyl-benzamide] | > 30 |
| O=C(Nc1cc(C(F)(F)F)cc(C(F)(F)F)c1)c1cnc(-c2ccccc2)nc1 [2-Phenyl-pyrimidine-5-carboxylic acid (3,5-bis-trifluoromethyl-phenyl)-amide] | > 10 |
| O=C(Nc1cc(C(F)(F)F)cc(C(F)(F)F)c1)c1cnc(Cl)nc1-c1cccs1 [2-Chloro-4-thiophen-2-yl-pyrimidine-5-carboxylic acid (3,5-bis-trifluoromethyl-phenyl)-amide] | 8 |
| O=C(Nc1cc(C(F)(F)F)cc(C(F)(F)F)c1)c1cc(Cl)nc(Cl)n1 [2,6-Dichloro-pyrimidine-4-carboxylic acid (3,5-bis-trifluoromethyl-phenyl)-amide] | > 10 |
| CCCc1nc(Cl)ncc1C(=O)Nc1cc(C(F)(F)F)cc(C(F)(F)F)c1 [2-Chloro-4-propyl-pyrimidine-5-carboxylic acid (3,5-bis-trifluoromethyl-phenyl)-amide] | 0.5 |
